Measured values reported in the supplement of paper PMC11061612.

How the values were obtained:
[1] = tested on: NCI-H720 (Other Solid Carcinomas); experiment: combination Emax (second highest fraction inhibited in the dose matrix, 72 h); higher = more inhibition; extreme values may be limits of the assay
Summary of the method: (§1)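 Bliss excess equals the observed combination effect minus the expected value EA + EB − EA·EB, where EA and EB are the effects of each agent alone. Combination Emax is the second-highest inhibition within the matrix. Inhibition was scaled from CellTiter-Glo 2.0 luminescence, with 0 set by vehicle wells and 1 by blank wells, after 72 hours of two-drug dosing of cells plated in 1536-well plates.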

[2] = tested on: OE21 (Esophageal Squamous Cell Carcinoma); experiment: Bliss excess, mean over the matrix (fraction); higher = more synergy
Summary of the method: as §1

[3] = tested on: LS-123 (Colorectal Carcinoma); experiment: as above
Summary of the method: as §1

[4] = tested on: NCI-H524 (Small Cell Lung Carcinoma); experiment: as above
Summary of the method: as §1

[5] = tested on: Hs-746T (Gastric Carcinoma); experiment: as above
Summary of the method: as §1

[6] = tested on: TGBC1TKB (Biliary Tract Carcinoma); experiment: as above
Summary of the method: as §1

[7] = tested on: BE2-M17 (Neuroblastoma); experiment: as above
Summary of the method: as §1

[8] = tested on: WSU-NHL (B-Cell Non-Hodgkin's Lymphoma); experiment: as above
Summary of the method: as §1

[9] = tested on: NCI-H720 (Other Solid Carcinomas); experiment: as above
Summary of the method: as §1

[10] = tested on: SNU-449 (Hepatocellular Carcinoma); experiment: as above
Summary of the method: as §1

[11] = tested on: SAS (Oral Cavity Carcinoma); experiment: as above
Summary of the method: as §1

[12] = tested on: MPP-89 (Mesothelioma); experiment: as above
Summary of the method: as §1

[13] = tested on: CHP-134 (Neuroblastoma); experiment: combination Emax (second highest fraction inhibited in the dose matrix, 72 h); higher = more inhibition; extreme values may be limits of the assay
Summary of the method: as §1

[14] = tested on: CHP-134 (Neuroblastoma); experiment: Bliss excess, mean over the matrix (fraction); higher = more synergy
Summary of the method: as §1

Structure (SMILES) | combination Emax [1] | Bliss excess [2] | Bliss excess [3] | Bliss excess [4] | Bliss excess [5] | Bliss excess [6] | Bliss excess [7] | Bliss excess [8] | Bliss excess [9] | Bliss excess [10] | Bliss excess [11] | Bliss excess [12] | combination Emax [13] | Bliss excess [14]
COc1cccc(OCCCN)c1-c1cc(Nc2cnc(C#N)cn2)n[nH]1 [Prexasertib] + O=C(c1cc(Cc2n[nH]c(=O)c3ccccc23)ccc1F)N1CCN(C(=O)C2CC2)CC1 [Olaparib] (first compound max 1 µM, 7x7, partner max 10 µM) | 0.64 | -0.0499 | -0.0312 | -0.0666 | -0.0198 | -0.0767 | -0.0225 | -0.0532 | 0.0208 | -0.0813 | -0.0104 | -0.0227 |  | 
C=CCn1c(=O)c2cnc(Nc3ccc(N4CCN(C)CC4)cc3)nc2n1-c1cccc(C(C)(C)O)n1 [AZD1775] + C[C@@H]1COCCN1C2=NC(=NC(=C2)C3(CC3)[S@](=N)(=O)C)C4=C5C=CNC5=NC=C4 [AZD6738] (first compound max 1 µM, partner max 10 µM) | 0.838 | -0.0207 | -0.0519 | 0.051 | -0.0095 | 0.0388 | 0.103 | 0.0013 | 0.0344 | -0.0061 | 0.0138 | 0.0013 |  | 
CCc1c2c(nc3ccc(O)cc13)-c1cc3c(c(=O)n1C2)COC(=O)[C@]3(O)CC [SN-38] + CN(C)CCCOc1ccc(-c2ccc3ncc4c(c3c2)n(C2CCOCC2)c(=O)n4C)cn1 [AZD0156] (first compound max 0.3 µM, 7x7, partner max 1 µM) | 0.397 | -0.0243 | -0.0648 | 0.0993 | -0.029 | -0.006 | -0.0073 | 0.0636 | 0.035 | -0.0353 | 0.0781 | 0.0342 |  | 
CN(C)CCCOc1ccc(-c2ccc3ncc4c(c3c2)n(C2CCOCC2)c(=O)n4C)cn1 [AZD0156] + CCN(CCO)CCCOc1ccc2c(Nc3cc(CC(=O)Nc4cccc(F)c4)[nH]n3)ncnc2c1 [AZD2811] (first compound max 1 µM, 7x7, partner max 1 µM) | 0.742 | -0.0048 | -0.0409 | -0.0083 | -0.0747 | -0.043 | 0.0535 | -0.005 | 0.0368 | -0.0656 | -0.0391 | -0.0402 |  | 
COc1cccc(OCCCN)c1-c1cc(Nc2cnc(C#N)cn2)n[nH]1 [Prexasertib] + CCc1c2c(nc3ccc(O)cc13)-c1cc3c(c(=O)n1C2)COC(=O)[C@]3(O)CC [SN-38] (first compound max 1 µM, 7x7, partner max 0.3 µM) | 0.886 | -0.0509 | 0.0186 | 0.0554 | -0.0006 | 0.0365 | 0.0576 | -0.0073 | 0.197 | -0.0091 | -0.0246 | 0.0256 |  | 
CCN(CCO)CCCOc1ccc2c(Nc3cc(CC(=O)Nc4cccc(F)c4)[nH]n3)ncnc2c1 [AZD2811] + C[C@@H]1COCCN1C2=NC(=NC(=C2)C3(CC3)[S@](=N)(=O)C)C4=C5C=CNC5=NC=C4 [AZD6738] (first compound max 1 µM, 7x7, partner max 10 µM) | 0.8 | -0.142 | -0.0258 | -0.0399 | -0.0706 | -0.0184 | 0.0002 | -0.0665 | 0.0033 | -0.0536 | -0.0354 | -0.0823 |  | 
COc1cccc(OCCCN)c1-c1cc(Nc2cnc(C#N)cn2)n[nH]1 [Prexasertib] + C[C@@H]1COCCN1C2=NC(=NC(=C2)C3(CC3)[S@](=N)(=O)C)C4=C5C=CNC5=NC=C4 [AZD6738] (first compound max 1 µM, 7x7, partner max 10 µM) | 0.697 | 0.0084 | -0.0242 | -0.0122 | -0.033 | -0.0064 | -0.0172 | 0.0077 | -0.0325 | 0.0134 | 0.0203 | -0.0232 |  | 
CCN(CCO)CCCOc1ccc2c(Nc3cc(CC(=O)Nc4cccc(F)c4)[nH]n3)ncnc2c1 [AZD2811] + O=C(c1cc(Cc2n[nH]c(=O)c3ccccc23)ccc1F)N1CCN(C(=O)C2CC2)CC1 [Olaparib] (first compound max 1 µM, 7x7, partner max 10 µM) | 0.561 | 0.0043 | 0.0144 | -0.0602 | -0.0553 | -0.0368 | 0.0317 | -0.0841 | -0.0312 | -0.0368 | 0.0114 | -0.0334 |  | 
COc1cccc2c1C(=O)c1c(O)c3c(c(O)c1C2=O)C[C@@](O)(C(=O)CO)C[C@@H]3O[C@H]1C[C@H](N)[C@H](O)[C@H](C)O1 [Doxorubicin] + Cc1cc2ncnn2cc1Nc1ncc2c(n1)n(C1CCOCC1)c(=O)n2C [AZD7648] (first compound max 1 µM, 7x7, partner max 10 µM) | 0.478 | 0.0511 | 0.035 | 0.145 | 0.0464 | -0.0247 | 0.0514 | 0.0404 | 0.0281 | -0.0358 | 0.0996 | 0.0691 |  | 
CN(C)CCCOc1ccc(-c2ccc3ncc4c(c3c2)n(C2CCOCC2)c(=O)n4C)cn1 [AZD0156] + O=C(c1cc(Cc2n[nH]c(=O)c3ccccc23)ccc1F)N1CCN(C(=O)C2CC2)CC1 [Olaparib] (first compound max 3 µM, partner max 3 µM) | 0.371 | -0.0006 | -0.0346 | 0.179 | 0.0802 | -0.0294 | 0.0515 | 0.403 | 0.0622 | -0.0344 | 0.0188 | -0.0547 | 0.434 | 0.174
CCc1c2c(nc3ccc(O)cc13)-c1cc3c(c(=O)n1C2)COC(=O)[C@]3(O)CC [SN-38] + O=C(c1cc(Cc2n[nH]c(=O)c3ccccc23)ccc1F)N1CCN(C(=O)C2CC2)CC1 [Olaparib] (first compound max 0.3 µM, 7x7, partner max 10 µM) | 0.333 | -0.0198 | 0.0301 | 0.0488 |  | 0.0009 | 0.0082 | 0.044 | -0.0027 | -0.0319 | 0.0501 | 0.0504 |  | 
C[C@@H]1COCCN1c1cc(C2([S@](C)(=N)=O)CC2)nc(-c2ccnc3[nH]ccc23)n1 [AZD6738] + O=C(c1cc(Cc2n[nH]c(=O)c3ccccc23)ccc1F)N1CCN(C(=O)C2CC2)CC1 [Olaparib] (first compound max 10 µM, 7x7, partner max 10 µM) | 0.687 | -0.007 | 0.0192 | 0.0196 | 0.0101 | -0.0578 | -0.0176 | -0.0379 | -0.0398 | 0.0007 | -0.0361 | 0.0055 |  | 
CN(C)CCCOc1ccc(-c2ccc3ncc4c(c3c2)n(C2CCOCC2)c(=O)n4C)cn1 [AZD0156] + C[C@@H]1COCCN1C2=NC(=NC(=C2)C3(CC3)[S@](=N)(=O)C)C4=C5C=CNC5=NC=C4 [AZD6738] (first compound max 1 µM, 7x7, partner max 10 µM) | 0.716 | 0.0015 | -0.0313 | 0.0229 | -0.0211 | -0.0227 | 0.0914 | -0.0252 | -0.0059 | -0.0662 | -0.0363 | 0.0041 |  | 
COc1cccc(OCCCN)c1-c1cc(Nc2cnc(C#N)cn2)n[nH]1 [Prexasertib] + CN(C)CCCOc1ccc(-c2ccc3ncc4c(c3c2)n(C2CCOCC2)c(=O)n4C)cn1 [AZD0156] (first compound max 1 µM, 7x7, partner max 1 µM) | 0.562 | -0.0949 | -0.0387 | -0.0435 | -0.0078 | -0.0053 | -0.0185 | -0.0066 | 0.0149 | -0.0227 | 0.0109 | -0.0242 |  | 
C=CCn1c(=O)c2cnc(Nc3ccc(N4CCN(C)CC4)cc3)nc2n1-c1cccc(C(C)(C)O)n1 [AZD1775] + O=C(c1cc(Cc2n[nH]c(=O)c3ccccc23)ccc1F)N1CCN(C(=O)C2CC2)CC1 [Olaparib] (first compound max 1 µM, partner max 10 µM) | 0.671 | -0.0216 | -0.0694 | 0.0424 | -0.0594 | -0.0558 | -0.0486 | -0.025 | -0.035 | -0.0418 | -0.0939 | -0.0018 |  | 
CCN(CCO)CCCOc1ccc2c(Nc3cc(CC(=O)Nc4cccc(F)c4)[nH]n3)ncnc2c1 [AZD2811] + C=CCn1c(=O)c2cnc(Nc3ccc(N4CCN(C)CC4)cc3)nc2n1-c1cccc(C(C)(C)O)n1 [AZD1775] (first compound max 1 µM, partner max 1 µM) | 0.679 | -0.0577 | -0.0373 | -0.0253 | 0.0312 | -0.0195 | 0.0436 | -0.0761 | 0.0326 | -0.0028 | -0.0526 | -0.0173 |  | 
COc1cccc(OCCCN)c1-c1cc(Nc2cnc(C#N)cn2)n[nH]1 [Prexasertib] + Cc1cc2ncnn2cc1Nc1ncc2c(n1)n(C1CCOCC1)c(=O)n2C [AZD7648] (first compound max 1 µM, 7x7, partner max 10 µM) | 0.746 | -0.0116 | -0.0141 | -0.0204 | -0.0512 | -0.0747 | 0.0047 | -0.0355 | 0.0515 | -0.0861 | -0.0247 | -0.0104 |  | 
C=CCn1c(=O)c2cnc(Nc3ccc(N4CCN(C)CC4)cc3)nc2n1-c1cccc(C(C)(C)O)n1 [AZD1775] + C1CN(CCC1(C(=O)N[C@@H](CCO)C2=CC=C(C=C2)Cl)N)C3=NC=NC4=C3C=CN4 [Capivasertib] (first compound max 3 µM, partner max 3 µM) | 0.842 | -0.0253 | -0.0341 | -0.0075 | 0.031 | -0.0061 | -0.0406 | -0.0271 | -0.0252 | 0.0122 | -0.0206 | -0.0704 | 0.844 | -0.0416
CN(C)CCCOc1ccc(-c2ccc3ncc4c(c3c2)n(C2CCOCC2)c(=O)n4C)cn1 [AZD0156] + C=CCn1c(=O)c2cnc(Nc3ccc(N4CCN(C)CC4)cc3)nc2n1-c1cccc(C(C)(C)O)n1 [AZD1775] (first compound max 1 µM, partner max 1 µM) | 0.722 | 0.0083 | -0.0229 | -0.0204 | -0.0305 | -0.0734 | -0.0429 | -0.002 | 0.0013 | -0.0635 | -0.0742 | -0.0513 |  | 
COc1cccc(OCCCN)c1-c1cc(Nc2cnc(C#N)cn2)n[nH]1 [Prexasertib] + C=CCn1c(=O)c2cnc(Nc3ccc(N4CCN(C)CC4)cc3)nc2n1-c1cccc(C(C)(C)O)n1 [AZD1775] (first compound max 1 µM, partner max 1 µM) | 0.692 | -0.0663 | -0.0296 | 0.053 | -0.0572 | 0.0068 | 0.098 | 0.0303 | 0.107 | -0.0048 | 0.0405 | 0.0912 |  | 
